Consider three molecules from US5036062A, “Novel esters” (Pharmacia AB, priority 1988, dated 1991).

Where a name gives a salt, the structure may show the parent alone.

The nature of data set [1]: Oral bioavailability of estramustine in dogs (AUC of estramustine after oral dosing). The format is in vivo, Beagle dogs. The note with it: oral water solution, dose equivalent to 140 mg estramustine phosphate, fasting; for AUC of estramustine, Mean ± S.D.: four Beagle dogs. Here is the method: Different formulations were administered orally to groups of four Beagle dogs. The dose was equivalent to 140 mg of estramustine phosphate. The animals were fasting before dosing and given 50 ml 0.01 M hydrochloric acid after the dose. Blood samples were analysed for estramustine by means of gas chromatography. (Andersson, S-B, et al., Acta Pharm.Suec. 19, 1 (1982).
The following formulations were used: […]
1. Water solution of estramustine phosphate disodium salt
2. Water solution of compound No. 6:2
3. Water solution of compound No. 4:2

Data set [2] in a line: Interactions with calcium ions (observation of precipitate in acetate buffer pH=4.5 after adding equimolar calcium ions). In kind it is physicochemical. The settings on record: for Observation: pH=4.5 buffer, observed for 3 h. The method, then:
Solution A: 0.3 mole/l calcium diethanesulfonate. Calcium carbonate ([…], 15 mmole) is dissolved by adding a 1.0 mole/l ethanesulfonic acid solution until a stable pH=5.3 is obtained. The solution is diluted with water to 50 ml.
Solution B: 0.03 mole/l calcium diethanesulfonate. One part of solution A is diluted with 9 parts of water.
Solution C: 0.05 mole/l sodium acetate/acetic acid buffer with pH=4.5. Glacial acetic acid (3.0 g, 0.05 mole) is dissolved in 800 ml of water, titrated with 1 mole/l sodium hydroxide solution to pH=4.5 and diluted to 1 l.
The test compound is dissolved in 50 ml of solution C. A clear solution is obtained in a few minutes. After 5 minutes an equimolar amount of calcium ions are added by adding 1 ml of solution A or B. The mixture is observed for 3 h.

As to `CNCC(=O)O[C@H]1CC[C@H]2[C@@H]3CCc4cc(OC(=O)N(CCCl)CCCl)ccc4[C@H]3CC[C@]12C` [Compound No. 4:2, 17-Estramustine N-methylaminoacetate, ethanesulfonate], the AUC of estramustine in data set [1] (Dog No. 8729) turned out to be 94.0 ng/mlxhours; in data set [1] (Dog No. 8731), 79.8 ng/mlxhours; in data set [1] (Dog No. 8735), 2.6 ng/mlxhours; in data set [1] (Dog No. 8742), 153.4 ng/mlxhours. For the same molecule, the “AUC of estramustine, Mean ± S.D.” value in data set [1] is listed as 82.6 ± 62.0 ng/mlxhours.

On to `C[C@]12CC[C@@H]3c4ccc(OC(=O)N(CCCl)CCCl)cc4CC[C@H]3[C@@H]1CC[C@@H]2OC(=O)CN` [Compound No. 6:2, 17-estramustine aminoacetate, methanesulfonate], for which the Observation entry in data set [2] (178 mg, 0.3 mmole compound, solution A, 0.3 mmole calcium ions) was “Remains clear”. For the same molecule, the AUC of estramustine in data set [1] (Dog No. 8727) turned out to be 100 ng/mlxhours; in data set [1] (Dog No. 8729), 140 ng/mlxhours; in data set [1] (Dog No. 8731) it was 45.8 ng/mlxhours; in data set [1] (Dog No. 8733), 184.8 ng/mlxhours. The “AUC of estramustine, Mean ± S.D.” value in data set [1] is 118 ± 59 ng/mlxhours.

With `C[C@]12CC[C@@H]3c4ccc(OC(=O)N(CCCl)CCCl)cc4CC[C@H]3[C@@H]1CC[C@@H]2OP(=O)(O)O` [Estramustine phosphate disodium salt, 17-estramustine dihydrogen phosphate ester, reference compound], in data set [2] (16 mg, 0.03 mmole compound, solution B, 0.03 mmole calcium ions), the Observation entry was “Becomes unclear”. In data set [2] (novel compounds at concentrations 10 times higher than those of estramustine phosphate disodium salt and calcium ions giving immediate undissolved calcium salt), the “precipitate in the presence of calcium ions (summary)” value is reported as “immediate formation of an undissolved estramustine phosphate calcium salt”. Also, the AUC of estramustine is recorded as 147 ng/mlxhours in data set [1] (Dog No. 8727), 16.4 ng/mlxhours in data set [1] (Dog No. 8729), 34.0 ng/mlxhours in data set [1] (Dog No. 8731) and 19.5 ng/mlxhours in data set [1] (Dog No. 8733). Further, in data set [1] (listed as Etramustine phosphate disodium salt), the “AUC of estramustine, Mean ± S.D.” value was 54.3 ± 62.4 ng/mlxhours.
